From patent US20220127297A1, “Novel Antibacterial 3"-Derivatives Of 4,6-Disubstituted 2,5-Dideoxystreptamine Aminoglycoside Antibiotics” (AGILeBiotics B.V., priority 2018, published 2022) come the findings set out here.

Assay [1] relates to E. coli ATCC BAA-1025 (= BL 21). Nature of the assay: MIC 90, broth micro-dilution, ATCC strains. The class given is cell-based, Escherichia coli. Conditions: Escherichia coli, ATCCBAA1025, read-out: MIC 90. The text has this:
(§1) 3.3 Protocol for MIC Determination (ATCC Strains)
(§2) Tested reference compounds. Amikacin sulfate (Cat. No. 01693, Chem-Impex), Gentamicin sulfate (Cat. No. G4918, Sigma Aldrich), Azithromycin (Cat. No. 1046056, USP), Ceftazidime Pentahydrate (Cat. No. 1098130, USP), Ciprofloxacin (Cat. No. 1134313, USP), Meropenem (Cat. No. 1392454, USP), Rifampicin (Cat. No. R0079, TCI), Tobramycin (Cat. No. 1667508, USP), Vancomycin (Cat. No. 1709007 USP).
(§3) Microbial strains. Staphylococcus aureus ATCC 29213, Staphylococcus aureus ATCC BAA-1717, Escherichia coli ATCC BAA-1025, Klebsiella pneumoniae ATCC BAA-1705, Klebsiella pneumoniae ATCC BAA-2524, Pseudomonas aeruginosa ATCC 27853, Pseudomonas aeruginosa ATCC BAA-2108, Acinetobacter baumannii ATCC BAA-1800.
(§4) Culture media and equipment. BBL™ Mueller Hinton Broth (REF 275730, Lot. 7009699, Becton Dickinson), Mueller Hinton Agar 2 (Ref. No. 97580-500G-F, Lot. No. BCBV4646, Sigma), Dulbecco's Modified Eagle's Medium (DMEM) (Cat. No. 41966-029, Gibco), Minimum Essential Medium (MEM) (Cat. No. 42360-024, Gibco), Fetal bovine serum (FBS) (Cat. No. F7524, Sigma), Non-essential amino acids (NEAA) (100×, Cat. No. 11140-035, Gibco), Sodium Pyruvate (100 mM, 100×, Cat. No. 11360-039, Gibco), Staurosporine (Cat. No. B50188, Biotrend), Cellstar 96-well plates U-bottom (Cat. No. 650180, Lot. No. E14123EB, Greiner Bio-one), CellTiter-Glo (Cat. No. G7573, Promega), 96-well plate V-bottom (Cat. No. 651201, Greiner), 96-well clear plate, U-bottom, (Cat. No. 650180, Greiner), 96-well white plate with clear bottom (Cat. No. 655098, Greiner), 96-well deep well plate 1 mL (Cat. No. 278606, Nunc), Sodium Pyruvate (100 mM, 100×, Gibco, Cat #11360-039), Incubator (Binder), Laminar flow (Thermo Scientific), BioPhotometer (Eppendorf); DEN-1B (McFarland Densitometer, Biosan); McFarland standards (polymer microparticle suspension, Biosan).
(§5) Compound preparation. The test compounds and reference antibiotics were prepared according to CLSI guidelines (Clinical and Laboratory Standards Institute (CLSI); Methods for dilution antimicrobial susceptibility tests for bacteria that grow aerobically; approved standard—ninth edition, M07-A9, Vol. 32, No. 2, 2012) as 5 mg/mL stock solutions in DMSO. Out of these DMSO solutions, 43.5 μL was transferred to 1656.5 μL of MH media in a deep well plate. Out of these working solutions 100 μL was transferred to wells in the third column of 96-well plates. Plates were previously filled with 50 μL of MH media in all wells except for the wells in the third column. After compound and antibiotic addition, 50 μL was transferred from the third to the fourth column, then from the fourth to the fifth and so on. In this manner, the compounds and antibiotics were plated in 96-well plate in serial two-fold dilutions giving a final concentration range of 64-0.125 μg/mL.
(§6) Preparation of microorganisms. Designations used for clinical isolates were from the Fidelta strain collection bank. Microorganisms used were all revived from skim milk storage at −70° C. by plating them on MH agar plates. The following day the single colony of each microorganism was again streaked on fresh agar plates. The next day, using the direct colony suspension method, broth solutions that achieve turbidity equivalent to 0.5 McFarland standard for each microorganism were prepared. […] Out of these suspensions, actual inoculums were prepared by diluting them 100× with MH media giving a final microorganism count of 2-8×10^5 CFU/mL. For each strain of microorganisms, 20 mL of these inoculum solutions were prepared. From the second to the twelfth column of 96-well plates, 50 μL of these solutions were transferred per well. To the first column, 50 μL per well of pure growth media was added. In this manner the first column was used as sterility control of media, the second column was used as control of microorganism's growth and the rest of the plate was used for MIC determination. All plates were incubated for 16-24 h at 37° C. […]

The subject of another assay is P. aeruginosa ATCC 27853. Nature of the assay: MIC 90, broth micro-dilution, ATCC strains. The class given is cell-based, Pseudomonas aeruginosa. Conditions: Pseudomonas aeruginosa, ATCC27853, read-out: MIC 90.
Source text: as §1, §2, §3, §4, §5, §6
(In general: In broth dilution the organism is exposed to a series of concentrations in liquid medium.)

In another assay the test system is S. aureus ATCC 29213. The assay is described as follows: MIC 90, broth micro-dilution, ATCC strains. Conditions: Staphylococcus aureus, ATCC29213, read-out: MIC 90. The class given is cell-based, Staphylococcus aureus.
Source text: as §1, §2, §3, §4, §5, §6

For assay [2], the system named is A. baumannii ATCC BAA-1800. The assay is described as follows: MIC 90, resistant ATCC strains of the ESKAPE panel. The class given is cell-based. As to conditions: Acinetobacter baumannii, ATCCBAA1800, MDR.
Source text: as §1, §2, §3, §4, §5, §6

Assay [3] has as its system K. pneumoniae ATCC BAA-1705. Nature of the assay: MIC 90, resistant ATCC strains of the ESKAPE panel. The class given is cell-based. As to conditions: Klebsiella pneumoniae, ATCCBAA1705, KPC.
Source text: as §1, §2, §3, §4, §5, §6

The test system of assay [4] is K. pneumoniae ATCC BAA-2524. Nature of the assay: MIC 90, resistant ATCC strains of the ESKAPE panel. The class given is cell-based. Conditions: Klebsiella pneumoniae, ATCCBAA2524, OXA-48.
Source text: as §1, §2, §3, §4, §5, §6

Assay [5] relates to P. aeruginosa ATCC BAA-2108. The assay is described as follows: MIC 90, resistant ATCC strains of the ESKAPE panel. The class given is cell-based. As to conditions: Pseudomonas aeruginosa, ATCCBAA2108, MDR.
Source text: as §1, §2, §3, §4, §5, §6

The subject of the next assay is S. aureus ATCC BAA-1717. The assay is described as follows: MIC 90, resistant ATCC strains of the ESKAPE panel. As to conditions: Staphylococcus aureus, MRSA. The class given is cell-based.
Source text: as §1, §2, §3, §4, §5, §6

Values after ≈ are worked out from the molar mass of the structure shown.

`NCC[C@H](O)C(=O)N[C@@H]1C[C@H](N)[C@@H](O[C@H]2O[C@H](CN)[C@@H](O)[C@H](O)[C@H]2O)[C@H](O)[C@H]1O[C@H]1O[C@H](CO)[C@@H](O)[C@H](N)[C@H]1O` [Amikacin, amikacin, reference compound]: the MIC90 in assay [1] was 2 µM (≈ 1.17 µg/mL); in the assay on P. aeruginosa ATCC 27853, 1 µM (≈ 0.586 µg/mL); in the assay with S. aureus ATCC 29213 it was 4 µM (≈ 2.34 µg/mL); in assay [2] it was 64 µg/mL (≈ 109 µM); in assay [3] it was 32 µg/mL (≈ 54.6 µM); in assay [4] it was 0.5 µg/mL (≈ 0.854 µM). Also, the MIC90 in assay [5] amounted to 16 µg/mL (≈ 27.3 µM); against S. aureus ATCC BAA-1717, 4 µg/mL (≈ 6.83 µM).

For the compound `N=C(NCCN)NC1C(O)[C@@H](CO)OC(OC2C(F)[C@H](O[C@H]3OC(CN)[C@@H](O)CC3N)C(N)C[C@H]2NC(=O)[C@@H](O)CCN)[C@@H]1O` (stereo partly shown) [ABX5020, Tobra-AHB-F-Gua-2-amino-ethyl], the MIC90 in assay [1] stood at 1 µM (≈ 0.656 µg/mL); with P. aeruginosa ATCC 27853, 0.25 µM (≈ 0.164 µg/mL); in the assay on S. aureus ATCC 29213 it was 0.25 µM (≈ 0.164 µg/mL); in assay [2] it was 32 µg/mL (≈ 48.8 µM); in assay [3] it was 8 µg/mL (≈ 12.2 µM); in assay [4], 0.5 µg/mL (≈ 0.763 µM). Further, the MIC90 in assay [5] was 2 µg/mL (≈ 3.05 µM); in the assay on S. aureus ATCC BAA-1717 it was 0.25 µg/mL (≈ 0.381 µM).
